Measurements from patent publication US11142526B2, “Spirocycle compounds and methods of making and using same” (H. Lundbeck A/S, priority 2017, dated 2021).
Where two headings read alike, the source gives them in different places.

Assays:
MAGL [1] = biological target: MAGL (Homo sapiens (Human), UniProt Q99685); assay: In vitro competitive activity-based protein profiling (gel-based, FP-Rh or HT-01 probe); type: biochemical; details: for IC50: read-out: MAGL Human PC3 (IC50)
Protocol: In Vitro Competitive Activity-Based Protein Profiling.
Proteomes (human prefrontal cortex or cell membrane fractions) (50 μL, 1.0 mg/mL total protein concentration) were preincubated with varying concentrations of inhibitors at 37° C. After 30 min, FP-Rh or HT-01 (1.0 μL, 50 μM in DMSO) was added and the mixture was incubated for another 30 min at room temperature. Reactions were quenched with SDS loading buffer (15 μL—4×) and run on SDS-PAGE.

MAGL [2] = biological target: MAGL (Mus musculus (Mouse), UniProt O35678); assay: In vitro competitive activity-based protein profiling, mouse brain proteome; type: biochemical; details: for IC50: mouse brain
[3] = human PFC (prefrontal cortex), read-out: MAGL % Inhibition at 1 μM (human PFC)
[4] = human PC3, read-out: MAGL % Inhibition at 1 μM (human PC3)

Sequence of MAGL (Homo sapiens (Human), UniProt Q99685) (Q99685 whole entry): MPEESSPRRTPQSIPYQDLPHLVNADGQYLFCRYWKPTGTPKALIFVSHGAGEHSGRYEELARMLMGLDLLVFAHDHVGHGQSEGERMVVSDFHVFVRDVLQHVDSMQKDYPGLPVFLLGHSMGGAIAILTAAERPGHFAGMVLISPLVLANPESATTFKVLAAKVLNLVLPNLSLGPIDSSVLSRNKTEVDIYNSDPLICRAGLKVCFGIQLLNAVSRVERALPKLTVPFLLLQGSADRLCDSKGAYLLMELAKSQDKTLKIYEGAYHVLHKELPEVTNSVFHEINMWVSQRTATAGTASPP
Sequence of MAGL (Mus musculus (Mouse), UniProt O35678) (O35678 whole entry): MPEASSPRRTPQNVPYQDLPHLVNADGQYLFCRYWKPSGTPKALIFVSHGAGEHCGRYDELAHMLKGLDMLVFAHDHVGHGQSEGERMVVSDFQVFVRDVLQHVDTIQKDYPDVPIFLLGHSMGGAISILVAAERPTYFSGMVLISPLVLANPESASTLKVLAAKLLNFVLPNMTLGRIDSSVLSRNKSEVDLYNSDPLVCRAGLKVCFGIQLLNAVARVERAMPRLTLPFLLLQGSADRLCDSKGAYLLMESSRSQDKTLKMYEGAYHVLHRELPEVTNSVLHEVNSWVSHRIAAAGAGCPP

O=C(OC(C(F)(F)F)C(F)(F)F)N1CCC2(CCCN2C(=O)c2ccc3scnc3c2)CC1 [Example 86, 1,1,1,3,3.3-Hexafluoropropan-2-yl 1-(benzo[d]thiazole-5-carbonyl)-1,8-diazaspiro[4.5] decane-8-carboxylate] showed an IC50 (MAGL [1]; human PC3) of less than 100 nM, an inhibition at 1 µM (MAGL [2]; 1 uM, mouse) greater than 75% and an IC50 (MAGL [2]) of less than 100 nM.

Work on Cc1c(Cl)c(C(=O)N2CCCC23CCN(C(=O)OC(C(F)(F)F)C(F)(F)F)CC3)nn1C [Example 131, 1,1,1,3,3,3-Hexafluoropropan-2-yl 1-(4-chloro-1,5-dimethyl-1H-pyrazole-3-carbonyl)-1,8-diazaspiro[4.5] decane-8-carboxylate] yielded an inhibition at 1 µM (MAGL [1]; [3]) greater than 75%, an IC50 (MAGL [1]; human PC3) of less than 100 nM and an inhibition at 1 µM (MAGL [2]; 1 uM, mouse) greater than 75%.

Work on Cc1nn(C)c(C(=O)N2CCCC23CCN(C(=O)OC(C(F)(F)F)C(F)(F)F)CC3)c1C#N [Example 19, 1,1,1,3,3,3-hexafluoropropan-2-yl 1-(4-cyano-1,3-dimethyl-1H-pyrazole-5-carbonyl)-1,8-diazaspiro[4.5]decane-8-carboxylate] yielded an inhibition at 1 µM (MAGL [1]; [3]) greater than 75% and an inhibition at 1 µM (MAGL [2]; 1 uM, mouse) greater than 75%.

For O=C(OC(C(F)(F)F)C(F)(F)F)N1CCC2(CCCN2C(=O)c2cc3nc(C4CC4)cc(C(F)F)n3n2)CC1 [Example 167, 1.1,1,3,3,3-Hexafluoropropan-2-yl 1-(5-cyclopropyl-7-(difluoromethyl)pyrazolo[1,5-a]pyrimidine-2-carbonyl)-1,8-diazaspiro[4.5] decane-8-carboxylate], the inhibition at 1 µM (MAGL [1]; [4]) was greater than 75%, the inhibition at 1 µM (MAGL [1]; [3]) was greater than 75% and the inhibition at 1 µM (MAGL [2]; 1 uM, mouse) was greater than 75%.

Compound O=C(OC(C(F)(F)F)C(F)(F)F)N1CCC2(CCCN2C(=O)c2cn3c(n2)CN(C2CCOCC2)CC3)CC1 [Example 162, 1,1,1,3,3,3-Hexafluoropropan-2-yl 1-(7-(tetrahydro-2H-pyran-4-yl)-5,6,7,8-tetrahydroimidazo [1,2-a]pyrazine-2-carbonyl)-1,8-diazaspiro[4.5] decane-8-carboxylate] has an inhibition at 1 µM (MAGL [1]; [4]) greater than 75%, an IC50 (MAGL [1]; human PC3) of less than 100 nM and an inhibition at 1 µM (MAGL [2]; 1 uM, mouse) greater than 75%.

COc1ccnc(C2(C(=O)N3CCCC34CCN(C(=O)OC(C(F)(F)F)C(F)(F)F)CC4)CC2)n1 [Example 203, 1,1,1,3,3,3-Hexafluoropropan-2-yl 1-(1-(4-methoxypyrimidin-2-yl)cyclopropane-1-carbonyl)-1,8-diazaspiro [4.5]decane-8-carboxylate] gave an inhibition at 1 µM (MAGL [1]; [4]) greater than 75%, an inhibition at 1 µM (MAGL [1]; [3]) greater than 75% and an IC50 (MAGL [1]; human PC3) of less than 100 nM. For the same compound, the inhibition at 1 µM (MAGL [2]; 1 uM, mouse) was greater than 75%.

In the case of O=C(OC(C(F)(F)F)C(F)(F)F)N1CCC2(CCCN2C(=O)c2cnc(Cl)nc2N2CCCC2)CC1 [Example 117, 1,1,1,3,3,3-Hexafluoropropan-2-yl 1-(2-chloro-4-(pyrrolidin-1-yl)pyrimidine-5-carbonyl)-1,8-diazaspiro [4.5]decane-8-carboxylate], the inhibition at 1 µM (MAGL [1]; [3]) is reported as greater than 75%, the IC50 (MAGL [1]; human PC3) is reported as less than 100 nM and the inhibition at 1 µM (MAGL [2]; 1 uM, mouse) is reported as greater than 75%.

In the case of O=C(OC(C(F)(F)F)C(F)(F)F)N1CCC2(CCCN2C(=O)c2nc3n(n2)CCCN3)CC1 [Example 153, 1,1,1,3,3,3-Hexafluoropropan-2-yl 1-(4,5,6,7-tetrahydro-[1,2,4]triazolo[1,5-a]pyrimidine-2-carbonyl)-1,8-diazaspiro[4.5]decane-8-carboxylate], the IC50 (MAGL [1]; human PC3) is reported as less than 100 nM.

Work on O=C(OC(C(F)(F)F)C(F)(F)F)N1CCC2(CCN(Cc3cccnn3)C2)CC1 [Example 9, 1,1,1,3,3,3-Hexafluoropropan-2-yl 2-(pyridazin-3-ylmethyl)-2,8-diazaspiro[4.5]decane-8-carboxylate] yielded an inhibition at 1 µM (MAGL [1]; [3]) greater than 75%.

For O=C(Cc1nc(C(F)(F)F)ccc1CN1CCCC12CCN(C(=O)OC(C(F)(F)F)C(F)(F)F)CC2)NS(=O)(=O)C1CC1 [Example 35, 1,1,1,3,3,3-Hexafluoropropan-2-yl 1-((2-(2-(cyclopropanesulfonamido)-2-oxoethyl)-6-(trifluoromethyl)pyridin-3-yl)methyl)-1,8-diazaspiro[4.5]decane-8-carboxylate], the inhibition at 1 µM (MAGL [1]; [4]) was greater than 75%.

In the case of O=C(OC(C(F)(F)F)C(F)(F)F)N1CCC2(CCCN2C(=O)C(F)(F)c2ncccn2)CC1 [Example 32, 1,1,1,3,3,3-Hexafluoropropan-2-yl 1-(2,2-difluoro-2-(pyrimidin-2-yl)acetyl)-1,8-diazaspiro[4.5]decane-8-carboxylate], the inhibition at 1 µM (MAGL [1]; [4]) is reported as greater than 75%, the inhibition at 1 µM (MAGL [1]; [3]) is reported as greater than 75% and the IC50 (MAGL [1]; human PC3) is reported as less than 100 nM.

Work on CC1(NC(=O)c2cn3c(n2)CN(C2CCC2)CC3)CCN(C(=O)OC(C(F)(F)F)C(F)(F)F)CC1 [Example 183, 1,1,1,3,3,3-Hexafluoropropan-2-yl 4-(7-cyclobutyl-5,6,7,8-tetrahydroimidazo[1,2-a]pyrazine-2-carboxamido)-4-methylpiperidine-1-carboxylate] yielded an inhibition at 1 µM (MAGL [1]; [4]) greater than 75%, an inhibition at 1 µM (MAGL [1]; [3]) greater than 75% and an IC50 (MAGL [1]; human PC3) of less than 100 nM.

O=C(OC(C(F)(F)F)C(F)(F)F)N1CCC2(CCCN2C(=O)C(F)(F)c2cnccn2)CC1 [Example 197, 1,1,1,3,3,3-Hexafluoropropan-2-yl 1-(2,2-difluoro-2-(pyrazin-2-yl)acetyl)-1,8-diazaspiro[4.5] decane-8-carboxylate] gave an inhibition at 1 µM (MAGL [1]; [4]) greater than 75% and an inhibition at 1 µM (MAGL [1]; [3]) greater than 75%.

Compound O=C(OC(C(F)(F)F)C(F)(F)F)N1CCC2(CCCN2C(=O)c2cc3cc(Cl)ccc3s2)CC1 [Example 95, 1,1,1,3,3,3-Hexafluoropropan-2-yl 1-(5-chlorobenzo[b]thiophene-2-carbonyl)-1,8-diazaspiro[4.5] decane-8-carboxylate] has an inhibition at 1 µM (MAGL [2]; 1 uM, mouse) greater than 75% and an IC50 (MAGL [2]) of less than 100 nM.

O=C(OC(C(F)(F)F)C(F)(F)F)N1CCC2(CCCN2C(=O)c2ccc3sccc3c2)CC1 [Example 90, 1,1,1,3,3,3-Hexafluoropropan-2-yl 1-(benzo[b]thiophene-5-carbonyl)-1,8-diazaspiro[4.5] decane-8-carboxylate] showed an inhibition at 1 µM (MAGL [2]; 1 uM, mouse) greater than 75% and an IC50 (MAGL [2]) of less than 100 nM.

O=C(OC(C(F)(F)F)C(F)(F)F)N1CCC2(CCCN2C(=O)c2ccn(-c3ccccc3)n2)CC1 [Example 82, 1,1,1,3,3,3-Hexafluoropropan-2-yl 1-(1-phenyl-1H-pyrazole-3-carbonyl)-1,8-diazaspiro[4.5] decane-8-carboxylate] gave an inhibition at 1 µM (MAGL [2]; 1 uM, mouse) greater than 75% and an IC50 (MAGL [2]) of less than 100 nM.

With O=C(OC(C(F)(F)F)C(F)(F)F)N1CCC2(CCCN2C(=O)c2ccc3[nH]ccc3c2)CC1 [Example 89, 1,1,1,3,3,3-Hexafluoropropan-2-yl 1-(1H-indole-5-carbonyl)-1,8-diazaspiro[4.5] decane-8-carboxylate] the inhibition at 1 µM (MAGL [2]; 1 uM, mouse) was greater than 75% and the IC50 (MAGL [2]) was less than 100 nM.

COc1cccc2cc(CN3CCCC34CCN(C(=O)OC(C(F)(F)F)C(F)(F)F)CC4)[nH]c12 [Example 53, 1,1,1,3,3,3-Hexafluoropropan-2-yl 1-((7-methoxy-1H-indol-2-yl)methyl)-1,8-diazaspiro[4.5] decane-8-carboxylate] was tested, and the inhibition at 1 µM (MAGL [2]; 1 uM, mouse) was greater than 75%.

With CC(C)n1cc(CN2CCCC23CCN(C(=O)OC(C(F)(F)F)C(F)(F)F)CC3)c(-c2cccc(N3CCCC3)c2)n1 [Example 8, 1,1,1,3,3,3-Hexafluoropropan-2-yl 1-((1-isopropyl-3-(3-(pyrrolidin-1-yl)phenyl)-1H-pyrazol-4-yl)methyl)-1,8-diazaspiro[4.5]decane-8-carboxylate] the “MAGL % Inhibition at 1 uM (Mouse)” value (MAGL [2]; 1 uM, mouse) was “### (% inhibition is greater than or equal to 75%)” and the IC50 (MAGL [2]) was 100 to 1000 nM.

O=C(OC(C(F)(F)F)C(F)(F)F)N1CCC2(CCN(Cc3cccnc3)C2)CC1 [Example 64, 1,1,1,3,3,3-Hexafluoropropan-2-yl 2-(pyridin-3-ylmethyl)-2,8-diazaspiro[4.5] decane-8-carboxylate] gave an inhibition at 1 µM (MAGL [2]; 1 uM, mouse) greater than 75% and an IC50 (MAGL [2]) of 100 to 1000 nM.

Compound O=C(OC(C(F)(F)F)C(F)(F)F)N1CCC2(CCCN2C(=O)c2cc3c(s2)CCNC3)CC1 [Example 152, 1,1,1,3,3,3-Hexafluoropropan-2-yl 1-(4,5,6,7-tetrahydrothieno[3,2-c]pyridine-2-carbonyl)-1,8-diazaspiro[4.5] decane-8-carboxylate] has an IC50 (MAGL [1]; human PC3) of less than 100 nM.

O=C(OC(C(F)(F)F)C(F)(F)F)N1CCC2(CCN(Cc3cncnc3)C2)CC1 [Example 67, 1,1,1,3,3,3-Hexafluoropropan-2-yl 2-(pyrimidin-5-ylmethyl)-2,8-diazaspiro[4.5] decane-8-carboxylate] was tested, and the inhibition at 1 µM (MAGL [2]; 1 uM, mouse) was greater than 75% and the IC50 (MAGL [2]) was 100 to 1000 nM.

O=C(OC(C(F)(F)F)C(F)(F)F)N1CCC2(CCCN2Cc2ccc3cc(Cl)ccc3n2)CC1 [Example 55, 1,1,1,3,3.3-Hexafluoropropan-2-yl 1-((6-chloroquinolin-2-yl)methyl)-1,8-diazaspiro[4.5] decane-8-carboxylate] was tested, and the inhibition at 1 µM (MAGL [2]; 1 uM, mouse) was greater than 75% and the IC50 (MAGL [2]) was less than 100 nM.

O=C(OC(C(F)(F)F)C(F)(F)F)N1CCC2(CCN(Cc3ccnnc3)C2)CC1 [Example 106, 1,1,1,3,3,3-Hexafluoropropan-2-yl 2-(pyridazin-4-ylmethyl)-2,8-diazaspiro [4.5]decane-8-carboxylate] was tested, and the inhibition at 1 µM (MAGL [1]; [3]) was greater than 75%.

O=C(OC(C(F)(F)F)C(F)(F)F)N1CCC2(CCCN2C(=O)c2sc3ccccc3c2Cl)CC1 [Example 97, 1,1,1,3,3,3-Hexafluoropropan-2-yl 1-(3-chlorobenzo[b]thiophene-2-carbonyl)-1,8-diazaspiro[4.5] decane-8-carboxylate] showed an inhibition at 1 µM (MAGL [2]; 1 uM, mouse) greater than 75%.

For CC(C)n1ccc(C(=O)N2CCCC23CCN(C(=O)OC(C(F)(F)F)C(F)(F)F)CC3)n1 [Example 81, 1,1,1,3,3,3-Hexafluoropropan-2-yl 1-(1-isopropyl-1H-pyrazole-3-carbonyl)-1,8-diazaspiro[4.5] decane-8-carboxylate], the inhibition at 1 µM (MAGL [2]; 1 uM, mouse) was greater than 75% and the IC50 (MAGL [2]) was less than 100 nM.

With O=C(OC(C(F)(F)F)C(F)(F)F)N1CCC2(CCCN2C(=O)c2cccnc2)CC1 [Example 13, 1,1,1,3,3,3-Hexafluoropropan-2-yl 1-nicotinoyl-1,8-diazaspiro[4.5]decane-8-carboxylate] the inhibition at 1 µM (MAGL [2]; 1 uM, mouse) was greater than 75%.
